Measurements as given in patent US20140228425A1, “INHIBITOR FOR CORNEAL EPITHELIAL CELL DEATH, INHIBITOR CHARACTERIZED BY COMBINING HYALURONIC ACID AND FLAVIN ADENINE DINUCLEOTIDE” (SANTEN PHARMACEUTICAL CO., LTD., priority 2011, published 2014).
Structures can show the parent of a compound that is named as a salt.

Columns and labels:
[1] = test system: corneal epithelial cells; conditions: Non-Patent Document 1; cited from earlier work
[2] = test system: corneal epithelial cells; conditions: Non-Patent Document 3; cited from earlier work
[3] = test system: SV40 immortalized human corneal epithelial cells (HCE-T); experiment: Pharmacological Test 2: treatment before UV-B irradiation (120 mJ/cm^2), cell death inhibition ratio; type: cell-based; conditions: for Cell death inhibition ratio: average N=3
Protocol: A test similar to Pharmacological test 1 was conducted with the irradiation condition of UV-B varied.
After conducting operations similar to those in Pharmacological test 1, the 10% FBS-containing DMEM/F-12 culture medium was replaced by PBS containing 0.05% (w/v) flavin adenine dinucleotide disodium salt, PBS containing 0.05% (w/v) sodium hyaluronate, PBS containing 0.05% (w/v) sodium hyaluronate and 0.05% (w/v) flavin adenine dinucleotide disodium salt, PBS containing 0.3% (w/v) sodium hyaluronate, PBS containing 0.3% (w/v) sodium hyaluronate and 0.05% (w/v) flavin adenine dinucleotide disodium salt, or PBS not containing a test substance (hereinafter, referred to as “0.05% FAD group”, “0.05% HA group”, “0.05% HA/0.05% FAD group”, “0.3% HA group”, “0.3% HA/0.05% FAD group” or “base group”, respectively). Then, corneal epithelial cells were irradiated with UV-B (120 mJ/cm^2) for about 2 minutes, and again operations similar to those in Pharmacological test 1 were conducted. Then, according to the expression 1, the viability was calculated, and further, according to the following expression 2, the cell death inhibition ratio of each group was calculated.
Cell death inhibition ratio (%)=Viability of each group−Viability of base group [Expression 2]

[4] = test system: SV40 immortalized human corneal epithelial cells; experiment: Pharmacological Test 3: treatment after UV-B irradiation (80 mJ/cm^2), viability of corneal epithelial cells; type: cell-based; conditions: treated 60 minutes after UV-B irradiation (80 mJ/cm^2, about 1 minute); 0.1% (w/v) sodium hyaluronate, 0.05% (w/v) flavin adenine dinucleotide disodium salt, or both; FIG. 2
Protocol: Whether or not the decline of the number of living cells by ultraviolet irradiation is inhibited when corneal epithelial cells are treated with the present agent after ultraviolet (UV-B) irradiation was evaluated.
SV40 immortalized human corneal epithelial cells were inoculated in a 96-well plate (1×10^4 cells/well), and cultured in a 10% FBS-containing DMEM/F-12 culture medium for a day. On the next day, corneal epithelial cells were irradiated with UV-B (80 mJ/cm^2) for about 1 minute. Then the 10% FBS-containing DMEM/F-12 culture medium was replaced by PBS containing 0.1% (w/v) sodium hyaluronate, PBS containing 0.05% (w/v) flavin adenine dinucleotide disodium salt, PBS containing 0.1% (w/v) sodium hyaluronate and 0.05% (w/v) flavin adenine dinucleotide disodium salt, or PBS not containing a test substance, and then cultured at 37° C. for 60 minutes (hereinafter, referred to as “0.1% HA group”, “0.05% FAD group”, “0.1% HA/0.05% FAD group” or “base group”, respectively). Then, after replacing the culture medium of each group by a 10% FBS-containing DMEM/F-12 culture medium, the cells were cultured at 37° C. for 24 hours, and then the number of living cells was determined by using Cell Titer 96 (registered trade name) AQueous One Solution Cell Proliferation Assay, and the viability was calculated according to the following expression 3. […]

[5] = test system: SV40 immortalized human corneal epithelial cells; experiment: Pharmacological Test 4: treatment before exposure to dryness, viability of corneal epithelial cells; type: cell-based; conditions: treated 60 minutes before exposure to dryness for 15 minutes; 0.1% HA, 0.05% FAD or 0.1% HA/0.05% FAD in D-MEM/F12; FIG. 3
Protocol: Whether or not the decline of the number of living cells by dryness is inhibited when corneal epithelial cells are treated with the present agent before exposure to dryness was evaluated.
SV40 immortalized human corneal epithelial cells were inoculated in a 96-well plate (1×10^4 cells/well), and cultured in a 10% FBS-containing DMEM/F-12 culture medium for a day. On the next day, the culture medium was replaced by a D-MEM/F12 culture medium containing 0.1% (w/v) sodium hyaluronate, a D-MEM/F12 culture medium containing 0.05% (w/v) flavin adenine dinucleotide disodium salt, a D-MEM/F12 culture medium containing 0.1% (w/v) sodium hyaluronate and 0.05% (w/v) flavin adenine dinucleotide disodium salt, or a D-MEM/F12 culture medium not containing a test substance, and then cells were cultured at 37° C. for 60 minutes (hereinafter, referred to as “0.1% HA group”, “0.05% FAD group”, “0.1% HA/0.05% FAD group” or “base group”, respectively). After culturing, the culture medium of each group was removed, and then cells were exposed to dryness for 15 minutes. After exposure to dryness, the number of living cells was determined by using Cell Titer 96 (registered trade name) AQueous One Solution Cell Proliferation Assay, and the viability was calculated according to the following expression 4. […]

[6] = Patent Document 1; cited from earlier work
[7] = single substance 0.05% (w/v) in PBS before UV-B (120 mJ/cm^2, about 2 minutes)

Row | Compound | Cell death inhibition ratio [3, 7] [%] | inhibition of corneal epithelial cell death (in words) [4] | action of inhibiting corneal epithelial cell death (in words) [5] | further results
1 | hyaluronic acid or a salt thereof [hyaluronic acid or the like] |  |  |  | Caspase-3/7 activation by UV-B irradiation [1]: inhibits; increase in production of active oxygen by corneal epithelial cells by UV-B irradiation [1]: inhibits; cell death of corneal epithelial cells induced by dryness [2]: does not inhibit
2 | sodium hyaluronate [HA] | −0.17 | little observed | an action of inhibiting corneal epithelial cell death was observed | Cell death inhibition ratio ([3]; single substance 0.3% (w/v) in PBS before UV-B (120 mJ/cm^2, about 2 minutes)): 4.17%; inhibition of corneal epithelial cell death by UV-B irradiation (in words) ([3]; treatment before UV-B irradiation (120 mJ/cm^2, about 2 minutes)): little inhibit
3 | Cc1cc2nc3c(=O)[nH]c(=O)nc-3n(C[C@H](O)[C@H](O)[C@H](O)COP(=O)(O)OP(=O)(O)OC[C@H]3O[C@@H](n4cnc5c(N)ncnc54)C(O)C3O)c2cc1C (stereo partly drawn) [FAD or the like, flavin adenine dinucleotide (FAD) or a salt thereof] |  |  |  | lacrimal secretagogue action [6]: has a lacrimal secretagogue action
4 | Cc1cc2nc3c(=O)[nH]c(=O)nc-3n(C[C@H](O)[C@H](O)[C@H](O)COP(=O)([O-])OP(=O)([O-])OC[C@H]3O[C@@H](n4cnc5c(N)ncnc54)[C@H](O)[C@@H]3O)c2cc1C.[Na+].[Na+] [FAD, flavin adenine dinucleotide disodium salt] | 48.78 | little observed | the action was not observed | 
